Data as given in US7261906B2, “Anti-cancer therapy agent of arsenic hexoxide (As4O6) of a natural chemical substance and its pharmaceutical composition” (priority 1998, dated 2007).

Assay: Acute toxicity, single oral administration
Format: in vivo, Rats (Sprague Dawley strain)
Conditions: for Mortality, Days after treatment 1 / Mortality, Days after treatment 2 / Mortality, Days after treatment 3 / Mortality, Days after treatment 4 / Mortality, Days after treatment 5 / Mortality, Days after treatment 6 / Mortality, Days after treatment 7 / Mortality, Days after treatment 8 / Mortality, Days after treatment 9 / Mortality, Days after treatment 10 / Mortality, Days after treatment 11 / Mortality, Days after treatment 12 / Mortality, Days after treatment 13 / Mortality, Days after treatment 14 / Mortality, Hours after treatment 1 / Mortality, Hours after treatment 2 / Mortality, Hours after treatment 3 / Mortality, Hours after treatment 4 / Mortality, Hours after treatment 5 / Mortality, Hours after treatment 6 / Final mortality / Final mortality (dead/total): male
Protocol: The acute toxicity of oral administration of HD-2 was evaluated according to toxicity assessment criteria described in Article 96-8 of Notice on Food and Drug Safety (Apr. 16, 1994). Rats (Sprague Dawley strain) were used for animal experiments. Dosage of a single, oral administration ranged from 0.4 to 1.25 g/kg body weight in male rats and 0.4 to […] body weight in female rats. General conditions of the animals, toxic symptoms, and mortality were measured every hour for the initial 6 hours following the single administration and once a day afterwards for 14 days. Body weights were measured before starting the study, 7 days after the administration, and at autopsy. Expired rats were studied to find the cause of death at autopsy. […] Some rats manifesting these clinical symptoms expired, but others recovered to normal condition within 2 to 3 days of clinical symptoms.

O1[As]2O[As]3O[As]1O[As](O2)O3 [HD-2, arsenic hexoxide (As4O6)]
Mortality, Days after treatment 1 (0.4 g/kg B.W. oral): 0 | Mortality, Days after treatment 2 (0.4 g/kg B.W. oral): 0 | Mortality, Days after treatment 3 (0.4 g/kg B.W. oral): 0 | Mortality, Days after treatment 4 (0.4 g/kg B.W. oral): 0 | Mortality, Days after treatment 5 (0.4 g/kg B.W. oral): 0 | Mortality, Days after treatment 6 (0.4 g/kg B.W. oral): 0 | Mortality, Days after treatment 7 (0.4 g/kg B.W. oral): 0 | Mortality, Days after treatment 8 (0.4 g/kg B.W. oral): 0 | Mortality, Days after treatment 9 (0.4 g/kg B.W. oral): 0 | Mortality, Days after treatment 10 (0.4 g/kg B.W. oral): 0 | Mortality, Days after treatment 11 (0.4 g/kg B.W. oral): 0 | Mortality, Days after treatment 12 (0.4 g/kg B.W. oral): 0 | Mortality, Days after treatment 13 (0.4 g/kg B.W. oral): 0 | Mortality, Days after treatment 14 (0.4 g/kg B.W. oral): 0 | Mortality, Hours after treatment 1 (0.4 g/kg B.W. oral): 0 | Mortality, Hours after treatment 2 (0.4 g/kg B.W. oral): 0 | Mortality, Hours after treatment 3 (0.4 g/kg B.W. oral): 0 | Mortality, Hours after treatment 4 (0.4 g/kg B.W. oral): 0 | Mortality, Hours after treatment 5 (0.4 g/kg B.W. oral): 0 | Mortality, Hours after treatment 6 (0.4 g/kg B.W. oral): 0 | Final mortality (0.4 g/kg B.W. oral, 14 days): 0% | Final mortality (dead/total) (0.4 g/kg B.W. oral, 14 days): 0/5 | Mortality, Days after treatment 1 (0.6 g/kg B.W. oral): 0 | Mortality, Days after treatment 2 (0.6 g/kg B.W. oral): 0 | Mortality, Days after treatment 3 (0.6 g/kg B.W. oral): 0 | Mortality, Days after treatment 4 (0.6 g/kg B.W. oral): 0 | Mortality, Days after treatment 5 (0.6 g/kg B.W. oral): 0 | Mortality, Days after treatment 6 (0.6 g/kg B.W. oral): 0 | Mortality, Days after treatment 7 (0.6 g/kg B.W. oral): 0 | Mortality, Days after treatment 8 (0.6 g/kg B.W. oral): 0 | Mortality, Days after treatment 9 (0.6 g/kg B.W. oral): 0 | Mortality, Days after treatment 10 (0.6 g/kg B.W. oral): 0 | Mortality, Days after treatment 11 (0.6 g/kg B.W. oral): 0 | Mortality, Days after treatment 12 (0.6 g/kg B.W. oral): 0 | Mortality, Days after treatment 13 (0.6 g/kg B.W. oral): 0 | Mortality, Days after treatment 14 (0.6 g/kg B.W. oral): 0 | Mortality, Hours after treatment 1 (0.6 g/kg B.W. oral): 0 | Mortality, Hours after treatment 2 (0.6 g/kg B.W. oral): 0 | Mortality, Hours after treatment 3 (0.6 g/kg B.W. oral): 0 | Mortality, Hours after treatment 4 (0.6 g/kg B.W. oral): 0 | Mortality, Hours after treatment 5 (0.6 g/kg B.W. oral): 0 | Mortality, Hours after treatment 6 (0.6 g/kg B.W. oral): 0 | Final mortality (0.6 g/kg B.W. oral, 14 days): 0% | Final mortality (dead/total) (0.6 g/kg B.W. oral, 14 days): 0/5 | Mortality, Days after treatment 1 (0.8 g/kg B.W. oral): 1 | Mortality, Days after treatment 2 (0.8 g/kg B.W. oral): 1 | Mortality, Days after treatment 3 (0.8 g/kg B.W. oral): 0 | Mortality, Days after treatment 4 (0.8 g/kg B.W. oral): 0 | Mortality, Days after treatment 5 (0.8 g/kg B.W. oral): 0 | Mortality, Days after treatment 6 (0.8 g/kg B.W. oral): 0 | Mortality, Days after treatment 7 (0.8 g/kg B.W. oral): 0 | Mortality, Days after treatment 8 (0.8 g/kg B.W. oral): 0 | Mortality, Days after treatment 9 (0.8 g/kg B.W. oral): 0 | Mortality, Days after treatment 10 (0.8 g/kg B.W. oral): 0 | Mortality, Days after treatment 11 (0.8 g/kg B.W. oral): 0 | Mortality, Days after treatment 12 (0.8 g/kg B.W. oral): 0 | Mortality, Days after treatment 13 (0.8 g/kg B.W. oral): 0 | Mortality, Days after treatment 14 (0.8 g/kg B.W. oral): 0 | Mortality, Hours after treatment 1 (0.8 g/kg B.W. oral): 0 | Mortality, Hours after treatment 2 (0.8 g/kg B.W. oral): 0 | Mortality, Hours after treatment 3 (0.8 g/kg B.W. oral): 0 | Mortality, Hours after treatment 4 (0.8 g/kg B.W. oral): 0 | Mortality, Hours after treatment 5 (0.8 g/kg B.W. oral): 0 | Mortality, Hours after treatment 6 (0.8 g/kg B.W. oral): 0 | Final mortality (0.8 g/kg B.W. oral, 14 days): 10% | Final mortality (dead/total) (0.8 g/kg B.W. oral, 14 days): 2/5 | Mortality, Days after treatment 1 (0.85 g/kg B.W. oral): 2 | Mortality, Days after treatment 2 (0.85 g/kg B.W. oral): 1 | Mortality, Days after treatment 3 (0.85 g/kg B.W. oral): 0 | Mortality, Days after treatment 4 (0.85 g/kg B.W. oral): 0 | Mortality, Days after treatment 5 (0.85 g/kg B.W. oral): 0 | Mortality, Days after treatment 6 (0.85 g/kg B.W. oral): 0 | Mortality, Days after treatment 7 (0.85 g/kg B.W. oral): 0 | Mortality, Days after treatment 8 (0.85 g/kg B.W. oral): 0 | Mortality, Days after treatment 9 (0.85 g/kg B.W. oral): 0 | Mortality, Days after treatment 10 (0.85 g/kg B.W. oral): 0 | Mortality, Days after treatment 11 (0.85 g/kg B.W. oral): 0 | Mortality, Days after treatment 12 (0.85 g/kg B.W. oral): 0 | Mortality, Days after treatment 13 (0.85 g/kg B.W. oral): 0 | Mortality, Days after treatment 14 (0.85 g/kg B.W. oral): 0 | Mortality, Hours after treatment 1 (0.85 g/kg B.W. oral): 0 | Mortality, Hours after treatment 2 (0.85 g/kg B.W. oral): 0 | Mortality, Hours after treatment 3 (0.85 g/kg B.W. oral): 0 | Mortality, Hours after treatment 4 (0.85 g/kg B.W. oral): 0 | Mortality, Hours after treatment 5 (0.85 g/kg B.W. oral): 0 | Mortality, Hours after treatment 6 (0.85 g/kg B.W. oral): 0 | Final mortality (0.85 g/kg B.W. oral, 14 days): 60% | Final mortality (dead/total) (0.85 g/kg B.W. oral, 14 days): 3/5 | Mortality, Days after treatment 1 (1.25 g/kg B.W. oral): 3 | Mortality, Days after treatment 2 (1.25 g/kg B.W. oral): 1 | Mortality, Days after treatment 3 (1.25 g/kg B.W. oral): 0 | Mortality, Days after treatment 4 (1.25 g/kg B.W. oral): 0 | Mortality, Days after treatment 5 (1.25 g/kg B.W. oral): 0 | Mortality, Days after treatment 6 (1.25 g/kg B.W. oral): 0 | Mortality, Days after treatment 7 (1.25 g/kg B.W. oral): 0 | Mortality, Days after treatment 8 (1.25 g/kg B.W. oral): 0 | Mortality, Days after treatment 9 (1.25 g/kg B.W. oral): 0 | Mortality, Days after treatment 10 (1.25 g/kg B.W. oral): 0 | Mortality, Days after treatment 11 (1.25 g/kg B.W. oral): 0 | Mortality, Days after treatment 12 (1.25 g/kg B.W. oral): 0 | Mortality, Days after treatment 13 (1.25 g/kg B.W. oral): 0 | Mortality, Days after treatment 14 (1.25 g/kg B.W. oral): 0 | Mortality, Hours after treatment 1 (1.25 g/kg B.W. oral): 0 | Mortality, Hours after treatment 2 (1.25 g/kg B.W. oral): 0 | Mortality, Hours after treatment 3 (1.25 g/kg B.W. oral): 0 | Mortality, Hours after treatment 4 (1.25 g/kg B.W. oral): 0 | Mortality, Hours after treatment 5 (1.25 g/kg B.W. oral): 0 | Mortality, Hours after treatment 6 (1.25 g/kg B.W. oral): 0 | Final mortality (1.25 g/kg B.W. oral, 14 days): 100% | Final mortality (dead/total) (1.25 g/kg B.W. oral, 14 days): 5/5 | side effect (rats, single administration of 500 mg/kg body weight per day): did not have any side effect | Autopsy findings of rats expired during the study period (single oral administration): expanded stomach and engorged liver | Autopsy findings of rats killed at the end of the study (single oral administration, 14 days): Significant findings related to HD-2 administration were not observed | Clinical symptoms (within 3 days of single oral administration): dose-dependent depression and dyspnea
